Experimental data taken from patent US12157730B2, “Heteroaryl derivative, method for producing same, and pharmaceutical composition comprising same as effective component” (VORONOI INC., priority 2019, dated 2024).

Legend:
[1] = system: PC9; test: Lung cancer cell proliferation suppression, PC9; type: cell-based; conditions: Homo sapiens, PC-9; 72 hours after treatment, CellTiter-Glo
Procedure: (§1) The following experiment was carried out to evaluate the suppression activity of the compounds according to the present invention against proliferation of Ba/F3 and lung cancer cells which express EGFR mutations.
(§2) Of the cancer cell lines expressing the EGFR gene, A549 was cultured after adding 10% FBS (HyClone) to DMEM (Invitrogen), and RPMI-1640 (Invitrogen) with 10% FBS was used for the other cancer cells. For the Ba/F3 cells, RPMI-1640 with 10% FBS and 5 ng/ml IL-3 (R&D Systems) was used. The transduced Ba/F3 cells were cultured by adding 1 ug/ml puromycin (Invitrogen) to the same medium.
(§3) 24 hours before treatment with the compounds, 3000 to 5000 cells were distributed into each well of a white clear bottom 96 well plate (Corning). The compounds were diluted in dimethylsulfoxide (dilution ratio 3:1; 12 concentrations total) and injected 0.5 ul each for a final concentration of 0.3 nM to 50 um. As for measurement of live cells, 72 hours after treatment with the compounds, a CellTiter-Glo luminescent cell-viability reagent (Promega) was used to store the cells at room temperature for 10 minutes, followed by measurement of luminescence using a reader (SynergyNeo, Biotek). Each test was repeated three times.
(§4) The result was calculated as a cell growth ratio (%) compared to a control. The program GraphPad Prism version 5.0 was used to draw the graphs and calculate the GI50 values.

[2] = target: T1, Ba/F3 cell EGFR L858R (Homo sapiens, UniProt P00533, L858R); test: Ba/F3 cell proliferation suppression, EGFR L858R; type: cell-based; conditions: 72 hours after treatment, CellTiter-Glo
T1 construct: expressed in transfected cells; host or cells: Ba/F3
Procedure: as §1, §2, §3, §4

[3] = target: T2, Ba/F3 cell HER2 Exon20 ins YVMA (Homo sapiens, UniProt P04626, INS775YVMA); test: Ba/F3 cell proliferation suppression, HER2 Exon20 ins YVMA; type: cell-based; conditions: 72 hours after treatment, CellTiter-Glo
T2 construct: expressed in transfected cells; host or cells: Ba/F3
T2 sequence (P04626 with tags, fused parts or gaps INS775YVMA): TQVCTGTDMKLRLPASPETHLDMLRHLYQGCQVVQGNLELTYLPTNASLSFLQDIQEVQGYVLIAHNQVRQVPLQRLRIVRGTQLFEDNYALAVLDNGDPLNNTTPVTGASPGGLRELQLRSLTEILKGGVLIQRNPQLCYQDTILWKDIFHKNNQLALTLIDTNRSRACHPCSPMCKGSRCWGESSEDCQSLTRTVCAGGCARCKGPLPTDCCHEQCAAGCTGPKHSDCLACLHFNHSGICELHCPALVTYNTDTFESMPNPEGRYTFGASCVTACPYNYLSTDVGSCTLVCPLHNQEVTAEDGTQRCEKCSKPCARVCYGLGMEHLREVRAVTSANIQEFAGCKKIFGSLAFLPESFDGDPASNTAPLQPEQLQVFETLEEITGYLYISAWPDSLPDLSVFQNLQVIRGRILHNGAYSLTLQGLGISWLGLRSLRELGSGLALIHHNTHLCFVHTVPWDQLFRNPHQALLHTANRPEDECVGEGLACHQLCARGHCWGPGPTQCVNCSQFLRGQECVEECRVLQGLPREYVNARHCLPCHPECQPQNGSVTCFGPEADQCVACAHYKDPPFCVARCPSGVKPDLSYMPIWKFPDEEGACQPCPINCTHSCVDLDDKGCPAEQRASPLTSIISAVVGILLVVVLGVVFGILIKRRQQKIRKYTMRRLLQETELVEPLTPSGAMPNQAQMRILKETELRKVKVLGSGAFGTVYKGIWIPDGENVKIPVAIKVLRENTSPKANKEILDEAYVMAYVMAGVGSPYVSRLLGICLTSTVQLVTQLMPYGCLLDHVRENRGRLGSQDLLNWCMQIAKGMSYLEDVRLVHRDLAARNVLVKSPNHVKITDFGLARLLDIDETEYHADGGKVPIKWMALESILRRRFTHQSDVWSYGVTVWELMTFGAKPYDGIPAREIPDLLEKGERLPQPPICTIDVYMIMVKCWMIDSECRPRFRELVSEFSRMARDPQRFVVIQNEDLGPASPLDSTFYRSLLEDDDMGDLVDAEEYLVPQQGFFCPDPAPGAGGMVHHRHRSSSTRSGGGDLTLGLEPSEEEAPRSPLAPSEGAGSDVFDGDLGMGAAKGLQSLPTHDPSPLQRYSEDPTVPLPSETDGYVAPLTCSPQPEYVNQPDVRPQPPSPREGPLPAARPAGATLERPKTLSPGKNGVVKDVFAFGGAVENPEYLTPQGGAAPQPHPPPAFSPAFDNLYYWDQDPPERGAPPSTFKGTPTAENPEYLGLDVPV
Procedure: as §1, §2, §3, §4

[4] = system: Ba/F3 cell naive; test: Ba/F3 cell proliferation suppression, naive; type: cell-based; conditions: Mus musculus, BaF3; 72 hours after treatment, CellTiter-Glo
Procedure: as §1, §2, §3, §4

[5] = system: H1975; test: Lung cancer cell proliferation suppression, H1975; type: cell-based; conditions: Homo sapiens, NCI-H1975; 72 hours after treatment, CellTiter-Glo
Procedure: as §1, §2, §3, §4

[6] = system: PC9GR; test: Lung cancer cell proliferation suppression, PC9GR; type: cell-based; conditions: 72 hours after treatment, CellTiter-Glo
Procedure: as §1, §2, §3, §4

[7] = target: T3, Ba/F3 cell EGFR Exon20 ins FQEA (Homo sapiens, UniProt P00533, INS763FQEA); test: Ba/F3 cell proliferation suppression, EGFR Exon20 ins FQEA; type: cell-based; conditions: 72 hours after treatment, CellTiter-Glo
T3 construct: expressed in transfected cells; host or cells: Ba/F3
Procedure: as §1, §2, §3, §4

[8] = target: T4, Ba/F3 cell EGFR Exon20 ins ASV (Homo sapiens, UniProt P00533, INS769ASV); test: Ba/F3 cell proliferation suppression, EGFR Exon20 ins ASV; type: cell-based; conditions: 72 hours after treatment, CellTiter-Glo
T4 construct: expressed in transfected cells; host or cells: Ba/F3
Procedure: as §1, §2, §3, §4

[9] = target: T5, Ba/F3 cell EGFR Exon20 ins NPH (Homo sapiens, UniProt P00533, INS773NPH); test: Ba/F3 cell proliferation suppression, EGFR Exon20 ins NPH; type: cell-based; conditions: for GI50: 72 hours after treatment, CellTiter-Glo; for Ba/F3 (NPH) Activity: GI50 class, Ba/F3 cell line with NPH inserted at Exon20 of EGFR, 72 hours
T5 construct: expressed in transfected cells; host or cells: Ba/F3
In short: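 Cells (3000–5000/well) plated 24 h before compound, 12-point 3-fold dilutions at 0.3 nM to 50 um final; Ba/F3 lines grown with 5 ng/ml IL-3. Viability by CellTiter-Glo luminescence after 72 h, growth ratio vs control, GI50 from curves; triplicate.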

[10] = target: T6, Ba/F3 cell EGFR L858R/T790M (Homo sapiens, UniProt P00533, L858R/T790M); test: Ba/F3 cell proliferation suppression, EGFR L858R/T790M; type: cell-based; conditions: 72 hours after treatment, CellTiter-Glo
T6 construct: expressed in transfected cells; host or cells: Ba/F3
Procedure: as §1, §2, §3, §4

[11] = target: T7, Ba/F3 cell EGFR Exon20 ins SVD (Homo sapiens, UniProt P00533, INS770SVD); test: Ba/F3 cell proliferation suppression, EGFR Exon20 ins SVD; type: cell-based; conditions: 72 hours after treatment, CellTiter-Glo
T7 construct: expressed in transfected cells; host or cells: Ba/F3
Procedure: as §1, §2, §3, §4

[12] = system: scanMAX kinase panel (EGFR mutant, ERBB2, ERBB4); test: DiscoverX (eurofin) KINOMEscan (scanMAX platform) kinase profiling; type: binding; conditions: for suppression activity against the EGFR mutant and ERBB2 and ERBB4: KINOMEscan scanMAX kinase profiling
Description: It was confirmed that the above example compounds had high selectivity against EGFR series genes. Accordingly, these can be useful in the treating of cancers wherein this kinase is expressed. In particular, as they have substantially outstanding lung cancer cell line proliferation suppression, they can be useful in the treatment of lung cancer, breast cancer, and brain cancer.

[13] = system: Ba/F3 cell EGFR Del19/T790M; test: Ba/F3 cell proliferation suppression, EGFR Del19/T790M; type: cell-based; conditions: 72 hours after treatment, CellTiter-Glo
Procedure: as §1, §2, §3, §4

[14] = Cancer cell proliferation suppression, A549; type: cell-based; conditions: A459; 72 hours after treatment, CellTiter-Glo
Procedure: as §1, §2, §3, §4

Row | Structure (SMILES) | GI50 [1] [nM] | GI50 [2] [µM] | GI50 [3] [µM] | GI50 [4] [µM] | GI50 [5] [nM] | GI50 [6] [nM] | GI50 [7] [µM] | GI50 [8] [µM] | GI50 [9] [µM] | Ba/F3 (NPH) Activity [9] | GI50 [10] [µM] | GI50 [11] [µM] | % inhibition of scanMAX Kinase profiling ([12]; EGFR(E746-A750del)) [%] | % inhibition of scanMAX Kinase profiling ([12]; EGFR(G719C)) [%] | % inhibition of scanMAX Kinase profiling ([12]; EGFR(G719S)) [%] | % inhibition of scanMAX Kinase profiling ([12]; EGFR(L747-E749del, A750P)) [%] | % inhibition of scanMAX Kinase profiling ([12]; EGFR(L747-T751del.Sins)) [%] | % inhibition of scanMAX Kinase profiling ([12]; EGFR(L858R)) [%] | % inhibition of scanMAX Kinase profiling ([12]; EGFR(L858R.T790M)) [%] | % inhibition of scanMAX Kinase profiling ([12]; EGFR(L861q)) [%] | also measured
1 | C=CC(=O)Nc1cc(Nc2cc(N3OCC[C@@H]3c3cc(F)cc(F)c3)ncn2)c(OC)cc1N1CCC(N2C[C@H]3C[C@@H]2CO3)CC1 [Example 238, N-(2-(4-((1R,4R)-2-oxa-5-azabicyclo[2.2.1]heptane-5-yl)piperidine-1-yl)-5-((6-((R)-3-(3,5-difluorophenyl)isoxazolidine-2-yl)pyrimidine-4-yl)amino)-4-methoxyphenyl) acrylamide] | 1 | < 0.05 | < 0.05 | 0.5 to 5 | 1 | 4 | < 0.05 | < 0.05 | < 0.05 | A (GI50 < 50 nM) | < 0.05 | < 0.05 | 100 | 100 | 100 | 91 | 92 | 99 | 98 | 98 | % inhibition of scanMAX Kinase profiling ([12]; EGFR(S752-I759del)): 91%; % inhibition of scanMAX Kinase profiling ([12]; EGFR(T790M)): 100%; % inhibition of scanMAX Kinase profiling ([12]; ERBB2): 100%; % inhibition of scanMAX Kinase profiling ([12]; ERBB4): 100%; suppression activity against the EGFR mutant and ERBB2 and ERBB4 [12]: high suppression activity; GI50 [13]: < 0.05 µM
2 | C=CC(=O)Nc1cc(Nc2cc(N3OCC[C@@H]3c3cc(F)cc(F)c3)ncn2)c(OC)cc1N1CCC(N2CCOCC2)CC1 [Example 30, N-(5-((6-((R)-3-(3,5-difluorophenyl)isoxazolidine-2-yl)pyrimidine-4-yl)amino)-4-methoxy-2-(4-morpholinopiperidine-1-yl)phenyl) acrylamide] | 1 | < 0.05 | < 0.05 | ≥ 5 | 1 | 6 | < 0.05 | < 0.05 | < 0.05 | A (GI50 < 50 nM) | < 0.05 | < 0.05 | 95 | 100 | 100 | 100 | 96 | 100 | 97 | 100 | % inhibition of scanMAX Kinase profiling ([12]; EGFR(S752-I759del)): 99%; % inhibition of scanMAX Kinase profiling ([12]; EGFR(T790M)): 100%; % inhibition of scanMAX Kinase profiling ([12]; ERBB2): 100%; % inhibition of scanMAX Kinase profiling ([12]; ERBB4): 100%; suppression activity against the EGFR mutant and ERBB2 and ERBB4 [12]: high suppression activity; GI50 [13]: < 0.05 µM
3 | C=CC(=O)Nc1cc(Nc2cc(N3OCC[C@@H]3c3cc(F)cc(F)c3)ncn2)c(OC)cc1N1CCC(N2CCN(CC)CC2)CC1 [Example 236, N-(5-((6-((R)-3-(3,5-difluorophenyl)isoxazolidine-2-yl)pyrimidine-4-yl)amino)-2-(4-(4-ethylpiperazine-1-yl)piperidine-1-yl)-4-methoxyphenyl) acrylamide] | 1 | < 0.05 | < 0.05 | 0.5 to 5 | 1 | 7 | < 0.05 | < 0.05 | < 0.05 | A (GI50 < 50 nM) | < 0.05 | < 0.05 | 89 | 100 | 100 | 98 | 100 | 100 | 98 | 98 | % inhibition of scanMAX Kinase profiling ([12]; EGFR(S752-I759del)): 89%; % inhibition of scanMAX Kinase profiling ([12]; EGFR(T790M)): 100%; % inhibition of scanMAX Kinase profiling ([12]; ERBB2): 100%; % inhibition of scanMAX Kinase profiling ([12]; ERBB4): 100%; suppression activity against the EGFR mutant and ERBB2 and ERBB4 [12]: high suppression activity; GI50 [13]: < 0.05 µM

Now from value to compound, other results behind:

Row | GI50 [1] [nM] | GI50 [2] [µM] | GI50 [3] [µM] | GI50 [4] [µM] | GI50 [5] [nM] | GI50 [6] [nM] | GI50 [7] [µM] | GI50 [8] [µM] | GI50 [9] [µM] | Ba/F3 (NPH) Activity [9] | GI50 [10] [µM] | GI50 [11] [µM] | % inhibition of scanMAX Kinase profiling ([12]; EGFR(E746-A750del)) [%] | % inhibition of scanMAX Kinase profiling ([12]; EGFR(G719C)) [%] | % inhibition of scanMAX Kinase profiling ([12]; EGFR(G719S)) [%] | % inhibition of scanMAX Kinase profiling ([12]; EGFR(L747-E749del, A750P)) [%] | % inhibition of scanMAX Kinase profiling ([12]; EGFR(L747-T751del.Sins)) [%] | % inhibition of scanMAX Kinase profiling ([12]; EGFR(L858R)) [%] | % inhibition of scanMAX Kinase profiling ([12]; EGFR(L858R.T790M)) [%] | % inhibition of scanMAX Kinase profiling ([12]; EGFR(L861q)) [%] | Structure (SMILES) | also measured
4 | 1 | < 0.05 | < 0.05 | ≥ 5 | 1 | 5 | < 0.05 | < 0.05 | < 0.05 | A (GI50 < 50 nM) | < 0.05 | < 0.05 | 96 | 100 | 99 | 95 | 93 | 100 | 98 | 97 | C=CC(=O)Nc1cc(Nc2cc(N3OCC[C@@H]3c3cc(F)cc(F)c3)ncn2)c(OC)cc1N1CCC(N2C[C@@H]3C[C@H]2CO3)CC1 [Example 239, N-(2-(4-((1S,4S)-2-oxa-5-azabicyclo[2.2.1]heptane-5-yl)piperidine-1-yl)-5-((6-((R)-3-(3,5-difluorophenyl)isoxazolidine-2-yl)pyrimidine-4-yl)amino)-4-methoxyphenyl) acrylamide] | % inhibition of scanMAX Kinase profiling ([12]; EGFR(S752-I759del)): 82%; % inhibition of scanMAX Kinase profiling ([12]; EGFR(T790M)): 100%; % inhibition of scanMAX Kinase profiling ([12]; ERBB2): 100%; % inhibition of scanMAX Kinase profiling ([12]; ERBB4): 100%; suppression activity against the EGFR mutant and ERBB2 and ERBB4 [12]: high suppression activity; GI50 [13]: < 0.05 µM
5 | 5 | – | – | – | 24 | 14 | – | – | – | – | – | – | – | – | – | – | – | – | – | – | O=C(Nc1cnn2ccc(N3CCC[C@@H]3c3cc(F)ccc3F)nc12)N1CC[C@H](O)C1 [Larotrectinib] | GI50 [14]: 4820 nM
